Data reported in patent US10323013B2, “Inhibitors of the IRE-1/XBP-1 pathway and methods of using thereof” (H. LEE MOFFITT CANCER CENTER AND RESEARCH INSTITUTE, INC., priority 2013, dated 2019).
“Also recorded” adds a separate entry of the source.

Columns and labels:
[1] = test system: XBP-1s expression; assay: Inhibition of XBP-1s expression in LPS-stimulated mouse B cells (immunoblots); assay type: cell-based; conditions: LPS 48 h, then inhibitor 20 μM for 24 h (Example 3 prints 20 mM)
Description: The protein concentrations of the supernatants were determined by BCA assay (Pierce). […] Proteins were transferred to nitrocellulose membranes, blocked in 5% milk (wt/vol in PBS), and immunoblotted with the indicated antibodies and appropriate horseradish peroxidase-conjugated secondary antibodies. Following multiple washes in PBS, the blots were developed using Western Lighting Chemiluminescence Reagent (Perkin-Elmer).
(§2) Protein concentrations were determined by BCA assays (Pierce). […] Proteins were transferred to nitrocellulose membranes, blocked in 5% non-fat milk (wt/vol in PBS), and immunoblotted with indicated primary antibodies and appropriate horseradish peroxidase-conjugated secondary antibodies. Immunoblots were developed using Western Lighting Chemiluminescence Reagent (Perkin-Elmer).

[2] = Pharmacokinetics of B-I09 in mouse plasma; assay type: in vivo; conditions: 50 mg/kg intraperitoneally
Description: In vivo pharmacokinetics studies were carried out at Agilux Laboratories, Inc. (Worchester, Mass.) using male CD-1 mice (Charles River Laboratories, Wilmington, Mass.). B-I09 was administered intraperitoneally at 50 mg/kg as a solution in DMSO to a group of 3 male CD-1 mice. Compound blood was collected via tail snip into calibrated microvette tubes containing K2EDTA at 0.25, 0.5, 1, 2, 4, 8, and 24 h post dosing. Blood samples were stored on wet ice until processed to plasma by centrifugation within 1 hour of collection. All plasma samples were transferred to 96 well plates and stored at −80° C. until analyzed for B-I09 concentration via LC/MS/MS using a C18 RP-HPLC column (2.1×50 mm) and an acetonitrile:water (with 0.1% formic acid) mobile phase elution gradient. B-I09 was quantified by analysis with API 5500 TurbolonSpray positive ion MS detection. A non-compartmental model was applied to calculate pharmacokinetic parameters using WinNonlin 4.2 software.

[3] = test system: Eμ-TCL1 CLL cells; assay: Cell proliferation XTT assay, Eμ-TCL1 CLL cells; assay type: cell-based, mouse; conditions: 20 μM, 3 days
Description: (§1) Eμ-TCL1, MEC1, MEC2, WaC3, or primary human CLL cells were grown in 96-well cell culture plates overnight and then treated with fresh phenol red-free culture medium containing STF-083010 (50 μM), A-I06 (50 μM), A-I07 (50 μM) or fludarabine (30 μM). […] Briefly, 50 μl XTT labeling reagent was combined with 100 μl electron-coupling reagent, and the mixture was applied to each well of the 96-well plates. The test was based on cleavage of the yellow tetrazolium salt XTT by mitochondrial dehydrogenases of the metabolic active cells to form the orange formazan compound, which can be spectrophotometrically quantified at 492 nm using a BioTek microplate reader.

[4] = test system: phosphorylation of BTK; assay: BCR activation and phosphorylation assay; assay type: cell-based; conditions: wild-type and Eμ-TCL1 B cells, B-I09 20 μM, F(ab′)2 anti-mouse IgM
Description: XBP-1^WT/Eμ-TCL1 B cells, XBP-1^KO/Eμ-TCL1 B cells, B-I09-treated wild-type B cells or B-I09-treated Eμ-TCL1 B cells were suspended in RPMI serum-free media supplemented with 25 mM Hepes, stimulated with F(ab′)^2 fragments of the goat anti-mouse IgM antibody (20 μg/ml) (SouthemBiotech) for 2 min, and lysed immediately by adding ice-cold lysis buffer (50 mM Tris-HCl, pH 8.0; 150 mM NaCl; 1% Triton X-100; 1 mM EDTA) supplemented with protease inhibitor cocktail (Roche), 4 mM sodium pyrophosphate, 2 mM sodium vanadate and 10 mM sodium fluoride. The lysates were analyzed by SDS-PAGE. Phosphorylated proteins of interest were detected by immunoblots using phospho-specific antibodies.

[5] = Degradation (chemical stability) studies by HPLC/LCMS; assay type: physicochemical
Description: The degradation of analog 24 was plotted as a function of time upon exposure to FRET-suppression assay buffer at rt. Aliquots were partitioned with MeOH and injected onto LCMS (UV monitored at 320 nm) and peaks integrated relative to internal standard.
A 20 mM stock solution of B-I09 in DMSO was diluted to 0.5 mM in FRET assay buffer (20 mM HEPES, pH 7.5, 50 mM KOAc, 0.5 mM MgCl2, 3 mM DTT, 0.4% PEG) or cell culture media (RPMI supplemented with 10% fetal bovine serum). The FRET assay buffer and cell culture media solutions were incubated at room temperature and 37° C., respectively. At various time points, a 50 μL aliquot of each solution was added to 50 μL of methanol and the mixture analyzed by analytical reverse-phase HPLC (C18 4 mm×150 mm column, 1 mL/min flow rate) with acetonitrile/water (0.1% formic acid) as eluent. Absorbance was read at 320 nm and the degradation product (aldehyde) was identified by LCMS and co-injection with pure synthetic sample. Degradation studies were carried out in duplicate and data points reported as the mean of two values.

[6] = test system: XBP-1 mRNA splicing; assay: XBP-1 mRNA splicing by RT-PCR; assay type: cell-based; conditions: human WaC3 CLL cells, 24 h
Description: Total RNA was isolated using TRIzol reagent (Invitrogen). Complementary DNA was synthesized from RNA using Superscript II reverse transcriptase (Invitrogen).

[7] = test system: CLL-bearing Eμ-TCL1 mice; assay type: in vivo
Description: (B) CLL-bearing Eμ-TCL1 mice were intraperitoneally injected with DMSO (n=3) or B-I09 (50 mg/kg in DMSO, n=8) daily for the first 5 days weekly for three weeks. Blood was collected to measure lymphocyte numbers using a HemaTrue Hematology Analyzer (HESKA). Data were compared with lymphocyte counts prior to B-I09 injections, and plotted as mean±SEM. (C) Lymphocyte counts in the peripheral blood of B-I09-treated Eμ-TCL1 mice (n=8) were plotted as mean±SEM. […] (E) Splenocytes from DMSO- or B-I09-injected Eμ-TCL1 mice were stained with IgM-PE-Cy7, B220-FITC, CD5-APC, Annexin V-PE and 7-AAD. Gated IgM+/B220+/CD5+ splenic CLL cells were analyzed for Annexin V- and/or 7-AAD-positive populations. (F) Percentages of apoptotic cells in gated IgM^+/B220^+/CD5^+ CLL populations from spleens of DMSO-injected (n=3) or B-I09-injected (n=8) Eμ-TCL1 mice were plotted as mean±SEM. (G) Weight of DMSO-injected (n=3) or B-I09-injected (n=8) Eμ-TCL1 mice was plotted as mean±SD. (H) Paraffin-embedded sections of indicated organs from Eμ-TCL1 mice receiving three weeks of injections with DMSO or B-I09 were stained with hematoxylin and eosin.
Tumor-bearing Eμ-TCL1 mice in which CLL cells comprise the majority of the lymphocytes in the peripheral blood (FIG. 33) were selected. The mice were then treated with 50 mg/kg B-I09 on the first five days of each week for three weeks. […] Since CLL cells proliferate in secondary lymphoid organs and are protected from cell death through interactions with microenvironments, whether B-I09 has an effect on CLL cells residing in the spleen was evaluated.

[8] = test system: primary human CLL cells; assay: Cell proliferation XTT assay, primary human CLL cells; assay type: cell-based; conditions: 20 μM, 3 days
Description: as §1

[9] = Aqueous solubility (stated in words); assay type: physicochemical
[10] = test system: XBP-1s expression in Mino cells; assay: Inhibition of XBP-1s expression in Mino cells (immunoblots and densitometry); assay type: cell-based, human; conditions: various doses, 24 h
Description: as §2

[11] = test system: XBP-1s expression in Jeko cells; assay: Inhibition of XBP-1s expression in Jeko cells (immunoblots and densitometry); assay type: cell-based, human; conditions: various doses, 24 h
Description: as §2

[12] = test system: Mino and Jeko cells; assay: PARP cleavage by immunoblot in Mino and Jeko cells; conditions: 50 mM (so in the source), 72 h
Description: Cells were lysed for the analysis of the indicated proteins by immunoblot.
as §2

[13] = test system: MEC1; assay: cells; conditions: Homo sapiens, MEC1, 48 h, read-out: GI50 (50% growth inhibition) concentration
[14] = test system: WaC3; assay: cells; conditions: Homo sapiens, 48 h, read-out: GI50 (50% growth inhibition) concentration
[15] = test system: MEC2; assay: cells; conditions: Homo sapiens, MEC2, 48 h, read-out: GI50 (50% growth inhibition) concentration

Structure (SMILES): O=c1oc2c(C3OCCCO3)c(O)ccc2c2c1CNCC2 [Compound 28, 7-(1,3-dioxan-2-yl)-8-hydroxy-3,4-dihydro-1H-chromeno[3,4-c]pyridin-5(2H)-one]
- inhibition of XBP-1s expression (in words) [1]: highly effective
- peak concentration [2]: ~39 µM
- time of peak concentration after administration [2]: 15 min
- half-life ([2]; male, CD-1, ip): ~1.5 h
- inhibition of mouse CLL cell growth (in words) [3]: more effective than B-H09 and 4μ8C
- BCR signaling, phosphorylation of BTK (in words) [4]: reduced phosphorylation of BTK
- fraction intact in cell culture media ([5]; 37° C., 24 h): greater than 50%
- half-life at 0.5 mM ([5]; cell culture media, 37° C., read-out: t1/2 in cell culture media (converted)): ~30 h
- stability of 1,3-dioxane group in FRET-suppression assay buffer (in words) ([5]; room temperature, up to 48 h, listed as B-I09): remains completely intact; also recorded: stable
- inhibition of splicing of XBP-1 mRNA (in words) [6]: highly effective
- apoptotic CD5+ CLL cells in the spleens (in words) ([7]; 50 mg/kg for three weeks vs DMSO): significant increase
- CLL in the peripheral blood (in words) ([7]; 50 mg/kg i.p., first five days of each week for three weeks): Clear CLL regression
- numbers of lymphocytes in the peripheral blood (in words) ([7]; after three weeks, normal range 500-5000 cells/μL): dropped close to the normal range
- expression of XBP-1s in CLL cells from peripheral blood (in words) ([7]; immunoblots, B-I09-injected mice): inhibits the expression of XBP-1s
- adverse effects or toxicity to mice (in words) ([7]; three weeks of treatment): no apparent adverse effects or toxicity
- weight loss and histological changes to vital organs (liver, lungs, kidney, heart) ([7]; three weeks of treatment): no significant weight loss or apparent histological changes
- inhibition of growth of CLL cells from human patients (in words) [8]: most potent inhibitor
- solubility (in words) [9]: water soluble

Structure (SMILES): CC(=O)N1CCc2c(c(=O)oc3c(C=O)c(O)ccc23)C1 [Compound 29, 3-acetyl-8-hydroxy-5-oxo-2,3,4,5-tetrahydro-1H-chromeno[3,4-c]pyridine-7-carbaldehyde]
- IC50 for blocking XBP-1s expression (in words) [10]: sub-micromolar range
- IC50 for blocking XBP-1s expression (in words) [11]: sub-micromolar range

Structure (SMILES): CN1CCc2c(c(=O)oc3c(C=O)c(O)ccc23)C1 [Compound 30, 8-hydroxy-3-methyl-5-oxo-2,3,4,5-tetrahydro-1H-chromeno[3,4-c]pyridine-7-carbaldehyde]
- PARP cleavage (in words) [12]: induced PARP cleavage more strongly than either 21b or 5

Structure (SMILES): C=CC(=O)N1CCC[C@@H](n2nc(-c3ccc(Oc4ccccc4)cc3)c3c(N)ncnc32)C1 [ibrutinib]
- GI50 [13]: 10 to 20 µM
- GI50 [14]: 10 to 20 µM
- GI50 [15]: 10 to 20 µM
